Experimental data from PubChem BioAssay (NCI).
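Each compound was tested at five concentrations against cells in 96-well plates for 48 hours. GI50 is the concentration that inhibits growth by half. At the TGI there is no net growth.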

Columns and labels:
Experiment in all cases: inhibition of tumour cell growth, NCI panel, 48 h
UACC-257 melanoma = test system: UACC-257 melanoma
TK-10 renal = test system: TK-10 renal
M14 melanoma = test system: M14 melanoma
T-47D breast = test system: T-47D breast
OVCAR-3 ovarian = test system: OVCAR-3 ovarian
ACHN renal = test system: ACHN renal
DU-145 prostate = test system: DU-145 prostate
HCT-15 colon = test system: HCT-15 colon
LXFL 529 NSCLC = test system: LXFL 529 NSCLC

Row | Structure (SMILES) | TGI (UACC-257 melanoma) [µM] | TGI (TK-10 renal) [µM] | TGI (M14 melanoma) [µM] | TGI (T-47D breast) [µM] | TGI (OVCAR-3 ovarian) [µM] | TGI (ACHN renal) [µM] | TGI (DU-145 prostate) [µM] | TGI (HCT-15 colon) [µM] | GI50 (UACC-257 melanoma) [µM] | GI50 (TK-10 renal) [µM] | GI50 (M14 melanoma) [µM] | GI50 (T-47D breast) [µM] | GI50 (OVCAR-3 ovarian) [µM] | GI50 (ACHN renal) [µM] | GI50 (DU-145 prostate) [µM] | GI50 (HCT-15 colon) [µM] | GI50 (LXFL 529 NSCLC) [µM] | TGI (LXFL 529 NSCLC) [µM]
1 | CC(C)(C)[Si](C)(C)OCC1C=CC(n2cnc3c(N)ncnc32)O1 (stereo unspecified) | 98.4 | > 100 | 66.9 | > 100 | > 67.9 | > 100 | > 100 | > 100 | – | – | – | – | – | – | – | – | – | –
2 | CS(=O)(=O)CCn1c(=O)c(Oc2ccc(F)cc2F)cc2cnc(NC3CCOCC3)nc21 | > 25 | > 25 | > 25 | > 25 | > 25 | > 25 | > 25 | > 25 | > 25 | > 25 | > 25 | > 25 | > 25 | > 25 | > 25 | > 25 | – | –
3 | C[C@@H](Oc1ccc2[nH]nc(/C=C/c3cnn(CCO)c3)c2c1)c1c(Cl)cncc1Cl | 6.29 | 1.68 | 3.11 | 7.69 | 3.56 | > 100 | > 43.6 | 8.38 | 1.43 | 0.251 | 0.739 | 1.31 | 0.462 | 0.284 | 0.413 | 0.197 | – | –
4 | OCC#Cc1ccccc1C#Cc1ccc(C#Cc2ccccc2C#CCO)s1 | 42.7 | 30.6 | 49 | 53.8 | 25.4 | 43.3 | 28.1 | 91.1 | 22.1 | 16.7 | 23.3 | 17.3 | 12.8 | 19.1 | 14.9 | 25.3 | – | –
5 | c1cc[c]([Sn]([S]c2cccc3cccnc23)([S]c2cccc3cccnc23)[c]2ccccc2)cc1 | 0.559 | 0.417 | 0.393 | – | 0.361 | 0.496 | – | 0.446 | 0.205 | 0.206 | 0.188 | – | 0.165 | 0.209 | – | 0.153 | 0.0782 | 0.211
6 | COc1ccc(/C=C(/C)[N+](=O)[O-])cc1 | 3.08 | 3.64 | 7.92 | > 100 | 3.26 | 3.97 | 6.26 | 7.36 | – | – | – | – | – | – | – | – | – | –
7 | CCCCCCCCCCCC(O)=C1C(=O)CC(O)CC1=O (stereo unspecified) | > 100 | > 100 | > 100 | – | > 100 | > 100 | – | – | – | – | – | – | – | – | – | – | – | > 100
8 | CN1CCN(c2ccc(NC3=C(Cl)C(=O)c4ncccc4C3=O)cc2C#N)CC1 | 3.29 | 4.24 | 3.57 | 5.26 | 1 | 2.36 | 15.5 | 3.53 | 1.73 | 2.09 | 1.74 | 1.76 | 0.229 | 1.15 | 2.99 | 1.64 | – | –
9 | O=C(O)c1cc(Cc2ccc(O)c(C(=O)O)c2)ccc1O (tested in a mixture with another compound) | 7.77 | 20.7 | 21.8 | 13.2 | 22.3 | 24.8 | 27.8 | 17 | 3.34 | 6.17 | 5.28 | 2.67 | 9.75 | 11 | 12 | 3.35 | – | –
